Consider one molecule from patent US20110123617A1, “CLIOQUINOL FOR THE TREATMENT OF HEMATOLOGICAL MALIGNANCIES” (priority 2007, published 2011).

One assay relates to cyclin D2 promoter. The experiment in a line: High throughput screen for inhibitors of cyclin D2 transactivation (luciferase assay). It is filed as cell-based, mouse. Particulars: NIH 3T3 cells over-expressing c-maf, ~5 μM, sixteen hours. The text has this:
The promoter of cyclin D2 (−894 to −4), containing c-maf responsive element sequence (MARE), was cloned from HeLa cell genomic DNA and subcloned into the pGL2 luciferase reporter vector (Promega, Madison, Wis.). This construct was co-transfected with pcDNA3.1 containing a neomycin resistance gene into NIH3T3 wild type cells and NIH3T3 cells stably over-expressing c-maf-IRES-GFP. Cells stably expressing c-maf, GFP, and luciferase were selected for further application. NIH3T3 cells stably expressing c-maf and the cyclin D2 promoter driving luciferase (13,000 cells per well) were plated in 96-well plates by the Biomek FX liquid handler (Beckman, Fullerton, Calif.). The same workstation was used for plate formatting and reagent distribution. […] After incubation, cyclin D2 transactivation was assessed by the luciferase assay and viability was assessed by the MTS assay. Luciferase activity was assessed according to the manufacturer's instructions (Promega, Madison, Wis.). […] After 10 min incubation, an equal volume of Bright-Glo Luciferase substrate (Promega) was added and the luminescence signal was detected with a 96-well Luminoskan luminescence plate reader (Thermo Labsystem, Waltham, Mass.) with a 5 second integration. […] Sixteen hours after the addition of the compounds, luciferase expression was measured as a marker of cyclin D2 transactivation. […]

The subject of the next assay is p21. As to the kind of experiment: Immunoblotting of p21. The note with it: low micromolar concentrations. The class given is cell-based. The text has this: A) Effect of increasing concentrations of clioquinol on LP1 and MY5 multiple myeloma cells at twenty hours after clioquinol treatment; determined by SDS-PAGE immunoblotting. B) Effect of increasing concentrations of clioquinol on the G0/G1 ratio in AML3, U937, LP1 and MY5 cells at twenty hours after clioquinol treatment; determined by PI staining and flow cytometry. To prepare cytosolic extracts, NIH3T3 cells and myeloma cells were washed with phosphate-buffered saline (PBS, pH 7.4) and suspending in lysis buffer [10 mM Tris (pH 7.4), 150 mM NaCl, 0.1% Triton X-100, 0.5% sodium deoxycholate, and 5 mM EDTA] containing protease inhibitors (Complete tablets, Roche, Indianapolis, Ind.). Protein concentrations were determined by the Bradford assay. Immunoblot assays were performed by subjecting equal amounts of protein to SDS-PAGE gels followed by transfer to Nitrocellulose membranes. Membranes were probed with polyclonal rabbit anti-human cyclin D2 (0.5 μg/ml, both from Santa Cruz Biotech, Santa Cruz, Calif.), or monoclonal mouse-anti human p21 (1:200 v/v, Santa Cruz Biotech), monoclonal mouse-anti human p27 (1:2,500 v/v BD Transduction Laboratories), polyclonal mouse-anti human ubiquitin (1:2,000 v/v Calbiochem) and monoclonal mouse-anti-β-actin (1:10,000 v/v) (Sigma, St. Lois, Mo.). […] Detection was performed by the Enhanced Chemical Luminescence (ECL) method (Pierce, Rockford, Ill.).
For orientation: A western blot detects proteins with antibodies after separation by electrophoresis.

Assay [1] relates to primary AML patient samples. As to the kind of experiment: Cell viability (MTS assay), primary AML patient samples. The class given is cell-based, human. Here is the method: Cell viability of leukemia, myeloma, solid tumor and primary cells forty-eight hours after clioquinol treatment by MTS assay. Cell viability was assessed with the CellTiter96® Aqueous Non-Radioactive Assay kit according to manufactures' instructions (Promega). Apoptosis was measured by flow cytometry to detect cell surface Annexin V expression and propidium iodide (PI) uptake (Biovision, Mountain View, Calif., USA) as previously described (20) The inventors tested the effects of clioquinol on the viability of acute leukemia (n=7), myeloma (n=14), and solid tumor (n=5) cell lines as well as primary AML samples (n=6) and primary normal hematopoietic cells (n=3). Forty-eight hours after incubation, clioquinol induced cell death in 6/7 AML, 12/14 myeloma, 0/5 solid tumor, […] and 0/3 normal hematopoietic cells with an IC50 <20 μM (FIG. 5). Of note, after oral administration of clioquinol, trough serum concentrations of 20 μM can be achieved in patients (32).
In general terms: Tetrazolium dyes change colour on reduction, which living cells bring about.

For orientation: IC50 means the concentration needed to halve the response being measured. In the case of `Oc1c(I)cc(Cl)c2cccnc12` [clioquinol, 5-chloro-7-iodo-8-hydroxyquinoline], the “cyclin D2 transactivation (luciferase expression)” value in the assay with cyclin D2 promoter is listed as “c-maf independent inhibitors of the cyclin D2 promoter”. Further, the “expression of p21” value with p21 is “increased expression”. Moreover, the IC50 in assay [1] (Homo sapiens, 6/7 primary AML patient samples, forty-eight hours, read-out: IC50 (cell death)) was less than 20 µM. Besides, the potency of clioquinol entry in assay [1] (primary AML cells supplemented with copper) was “increased the potency of clioquinol”.
